Measurements published in paper PMC3833878, “In Silico Molecular Comparisons of C. elegans and Mammalian Pharmacology Identify Distinct Targets That Regulate Feeding” (PLoS Biology, 2013).

How the values were obtained:
wild-type C. elegans = assay: Pharyngeal pumping assay; assay type: in vivo; details: for EC50: Caenorhabditis elegans, read-out: EC50 of the dose-dependent increase in the pharyngeal pumping rate
Method: (§1) Compounds at 1,000× stock concentrations (0.1–10 mM) in DMSO or an equal volume of DMSO were diluted in a suspension of E. coli OP-50 (100 µl of a 3× concentrated overnight culture in LB broth) and absorbed as a single drop onto 3.5 cm plates containing 2.5 ml of NGM agar forming a well-defined lawn of bacteria. For developmental exposures, 20–30 synchronized first larval stage C. elegans derived from alkaline hypochlorite treatment of gravid adults were applied to the preseeded plates and cultured until assay at mid-L4 stage (2 d, 20°C) or as day 1 gravid adults (3 d, 20°C). For naïve adult exposures, synchronized first larval stage animals were cultured on NGM-agar plates seeded with E. coli OP-50 for 3 d at 20°C, then transferred to assay plates, and pumping was assayed 1 to 16 h later. Comparisons between vehicle-treated and compound-treated animals were always performed between animals at the same developmental stage and same exposure time. Pharyngeal pumping was counted by live observation at 115–200× magnification using a stereo microscope and recorded at 10 s intervals using a manually controlled digital cell counter. Alternatively, C. elegans pumping was recorded for longer intervals (30–60 s) using bright-field time-lapse microscopy at 120× magnification with a 20 images per second acquisition rate. The resulting movies were analyzed manually at a playback rate of 10 images per second.
(§2) Significance was determined by one-way ANOVA applying a Dunnett's posttest when comparing multiple treatments to a single control and a Bonferroni posttest when comparing the more than two treatments against one another. For pairwise nonrepeated measured comparisons, a student's t test was used. To express data as a percentage of control, the pumping rates of compound-treated animals were divided by the mean pumping rate of the DMSO-treated wild-type animals measured in the same experiment, unless indicated otherwise. Error bars on the control samples indicate the variation around that mean, which is utilized in all statistical calculations.

Flt-3 receptor = molecular target: Flt-3 receptor; parameters: method as in PMID 20153646; details: cited from earlier work
Oxtr = molecular target: Oxtr; parameters: method as in PMID 7473590; details: cited from earlier work
tkr-1(RNAi) C. elegans = assay: Pharyngeal pumping assay, compound on RNAi-treated animals; assay type: in vivo
Method: Synchronized first larval stage C. elegans were cultured for 3 d at 20°C on a lawn of HT115 E. coli induced with IPTG to express double-stranded RNAi as described.
Compounds at 1,000× stock concentrations (0.1–10 mM) in DMSO or an equal volume of DMSO were diluted in a suspension of E. coli OP-50 (100 µl of a 3× concentrated overnight culture in LB broth) and absorbed as a single drop onto 3.5 cm plates containing 2.5 ml of NGM agar forming a well-defined lawn of bacteria. […] Pharyngeal pumping was counted by live observation at 115–200× magnification using a stereo microscope and recorded at 10 s intervals using a manually controlled digital cell counter. Alternatively, C. elegans pumping was recorded for longer intervals (30–60 s) using bright-field time-lapse microscopy at 120× magnification with a 20 images per second acquisition rate. The resulting movies were analyzed manually at a playback rate of 10 images per second.
Significance was determined by one-way ANOVA applying a Dunnett's posttest when comparing multiple treatments to a single control and a Bonferroni posttest when comparing the more than two treatments against one another. For pairwise nonrepeated measured comparisons, a student's t test was used. […]

[1] = tested on: gnrr-3(tm4152) mutant C. elegans; assay: Pharyngeal pumping assay, compound on high-feeding mutant; assay type: in vivo; details: percentage of the mutant's pumping rate on DMSO; 10 µM B16, D20, K9, F15, H6; 200 nM L-371257, SB 222200; 2 µM MMPIP, 5-flurox
Method: as §1, §2
(§3) The pumping rates are expressed as a percentage of the mutant’s pumping rate on DMSO, the vehicle control. p-values were calculated relative to DMSO treatment of each mutant by one-way ANOVA using Dunnett’s multiple comparison test.

[2] = tested on: mgl-2(tm355) mutant C. elegans; assay: as above; assay type: in vivo; details: percentage of the mutant's pumping rate on DMSO; 10 µM B16, D20, K9, F15, H6; 200 nM L-371257, SB 222200; 2 µM MMPIP, 5-flurox
Method: as §1, §2, §3

[3] = tested on: ver-2(ok897) mutant C. elegans; assay: as above; assay type: in vivo; details: percentage of the mutant's pumping rate on DMSO; 10 µM B16, D20, K9, F15, H6; 200 nM L-371257, SB 222200; 2 µM MMPIP, 5-flurox
Method: as §1, §2, §3

[4] = tested on: ver-3(ok891) mutant C. elegans; assay: as above; assay type: in vivo; details: percentage of the mutant's pumping rate on DMSO; 10 µM B16, D20, K9, F15, H6; 200 nM L-371257, SB 222200; 2 µM MMPIP, 5-flurox
Method: as §1, §2, §3

[5] = tested on: gnrr-1(ok238) mutant C. elegans; assay: as above; assay type: in vivo; details: percentage of the mutant's pumping rate on DMSO; 10 µM B16, D20, K9, F15, H6; 200 nM L-371257, SB 222200; 2 µM MMPIP, 5-flurox
Method: as §1, §2, §3

tachykinin receptor-3 = tachykinin receptor-3 (Homo sapiens, UniProt P29371); assay: Cell-based Ca flux assay (Multispan)
Chain of tachykinin receptor-3 (P29371 whole entry): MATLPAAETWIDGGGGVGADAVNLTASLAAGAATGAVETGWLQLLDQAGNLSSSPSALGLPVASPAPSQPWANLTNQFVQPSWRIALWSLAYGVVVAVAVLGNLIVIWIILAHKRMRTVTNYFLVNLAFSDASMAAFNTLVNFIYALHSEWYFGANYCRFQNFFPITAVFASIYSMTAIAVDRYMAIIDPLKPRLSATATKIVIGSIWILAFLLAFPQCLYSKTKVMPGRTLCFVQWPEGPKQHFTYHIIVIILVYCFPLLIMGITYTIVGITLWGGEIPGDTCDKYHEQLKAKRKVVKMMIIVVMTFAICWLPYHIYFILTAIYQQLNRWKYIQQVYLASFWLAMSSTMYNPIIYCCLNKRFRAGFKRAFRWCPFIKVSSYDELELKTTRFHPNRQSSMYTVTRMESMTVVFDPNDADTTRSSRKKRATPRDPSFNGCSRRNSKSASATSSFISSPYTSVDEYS
Method: (§4) Tachykinin, ghrelin, and calcium-sensing receptor activity were measured using a cell-based Ca flux assay by Multispan, Inc. (Hayward, California). Cholescystokinin A and B receptors were assayed for effects on cAMP production, and nicotinic acid receptor activity was measured in a cell-based assay of forskolin-stimulated cAMP production by Multispan, Inc. […], PP2A phosphatase activity assays were performed by CEREP (Celle l'Evescault, France) using PP2A from human erythrocytes. Phospholipase C from Bacillus cereus was assayed by CEREP, Inc. using glycero-phosphatidyl ethanolamine as a substrate, monitoring diacyl glycerol production. Radioligand binding assays for PPAR-α, γ, δ and the androgen receptor were performed by CEREP, Inc. CARNA Biosciences (Kobe, Japan) performed in vitro kinase activity assays using recombinant catalytic domains and measured phosphorylation of an Src-derived peptide for Flt-3 and phosphatidyl inositol for PI3KCA. Radioligand binding assays for the oxytocin receptor, D4 dopamine receptor, cannabinoid CB2 receptor, and angiotensin type I and II receptors were performed as described previously, as were cell-based activity assays for mGluR 1a, 2, 4, 5, 6, and 8 [60]–[62].

tachykinin receptor-2 = tachykinin receptor-2 (Homo sapiens, UniProt P21452); assay: Cell-based Ca flux assay (Multispan)
Chain of tachykinin receptor-2 (P21452 whole entry): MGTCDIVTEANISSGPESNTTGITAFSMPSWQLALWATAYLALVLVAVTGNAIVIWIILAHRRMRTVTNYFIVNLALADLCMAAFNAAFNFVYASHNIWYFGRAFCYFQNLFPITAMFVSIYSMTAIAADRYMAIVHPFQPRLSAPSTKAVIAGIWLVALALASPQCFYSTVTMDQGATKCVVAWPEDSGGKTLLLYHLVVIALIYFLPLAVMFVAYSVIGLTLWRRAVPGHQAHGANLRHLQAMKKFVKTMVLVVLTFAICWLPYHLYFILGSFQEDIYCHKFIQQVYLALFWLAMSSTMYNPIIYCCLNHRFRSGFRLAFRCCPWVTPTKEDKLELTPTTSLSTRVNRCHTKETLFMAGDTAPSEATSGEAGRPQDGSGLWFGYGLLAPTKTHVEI
Method: as §4

C. elegans = tested on: C. elegans; parameters: method as in earlier work; details: earlier phenotypic screen ref 11; cited from earlier work
tachykinin receptor-1 = tachykinin receptor-1 (Homo sapiens, UniProt P25103); assay: Cell-based Ca flux assay, cells stimulated by neurokinin-1 peptide (Multispan); details: marked with footnote d in Figure 2
Chain of tachykinin receptor-1 (P25103 whole entry): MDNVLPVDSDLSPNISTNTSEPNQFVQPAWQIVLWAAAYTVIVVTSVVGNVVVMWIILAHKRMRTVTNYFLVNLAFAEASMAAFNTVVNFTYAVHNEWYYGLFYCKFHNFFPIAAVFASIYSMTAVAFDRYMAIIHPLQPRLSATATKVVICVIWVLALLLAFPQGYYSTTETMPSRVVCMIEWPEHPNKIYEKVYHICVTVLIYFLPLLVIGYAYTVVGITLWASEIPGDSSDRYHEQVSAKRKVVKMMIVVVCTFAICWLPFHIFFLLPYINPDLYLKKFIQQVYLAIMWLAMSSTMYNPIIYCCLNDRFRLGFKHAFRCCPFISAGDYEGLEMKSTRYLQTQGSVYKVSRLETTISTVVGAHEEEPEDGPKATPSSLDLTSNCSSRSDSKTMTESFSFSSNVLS
Method: as §4
Supplementary file pbio.1001712.s001.tif: Figure S1 Dose-response measurements that validate SEA predictions for GPCRs. […]

Compound | EC50 (wild-type C. elegans) [nM] | IC50 (Flt-3 receptor) [nM] | Ki (Oxtr) [nM] | pharyngeal pumping rate, mean (tkr-1(RNAi) C. elegans; percentage of the pumping rate of tkr-1(RNAi) animals on DMSO, 10 µM B16, D20, K9, F15, H6, 200 nM L-371257, SB 222200, 2 µM MMPIP, 5-flurox) [%] | pharyngeal pumping rate, mean [1] [%] | pharyngeal pumping rate, mean [2] [%] | pharyngeal pumping rate, mean [3] [%] | pharyngeal pumping rate, mean [4] [%] | pharyngeal pumping rate, mean [5] [%] | Pharmacological relationship (tkr-1(RNAi) C. elegans; to C. elegans tkr-1 (C38C10.1), homolog of human Tkr-1) | Ki (tachykinin receptor-3) [nM] | Ki (tachykinin receptor-2) [nM] | Nile Red staining (C. elegans) | increase in pharyngeal pumping (wild-type C. elegans; 10 µM, cultured 3 d from L1, long-term video (60 s) and short-term manual (10 s) measurements) | exposure time after which the feeding elevating effect was notable (wild-type C. elegans; 10 µM, naïve day 1 gravid adults) [h] | effect on the pharyngeal pumping rate (wild-type C. elegans; wild-type, 10 µM versus 0.1% DMSO) | Ki (tachykinin receptor-1) [nM]
O=C1Nc2ccc(F)cc2/C1=C1/Nc2ccccc2C1=NO [5-flurox, 5′-fluoroindirubinoxime, reference compound] | 40 | 15 |  |  |  |  |  |  |  |  |  |  |  |  |  |  | 
COc1cc(OC2CCN(C(C)=O)CC2)ccc1C(=O)N1CCC(N2C(=O)OCc3ccccc32)CC1 [L-371257, 1-(1-[4-[(N-acetyl-4-piperidinyl)oxy]-2-methoxybenzoyl]piperidin-4-yl)-4H-3,1-benzoxazin-2(1H)-one, reference compound] | 10 |  | 4.6 | 109.9 | 108.5 | 105.0 | 100.8 | 94.8 | 99.2 |  |  |  |  |  |  |  | 
COc1ccc(OC)c(-c2cc(NC(=O)c3ccccc3C(N)=O)c3ccccc3n2)c1 [H6] |  |  |  |  |  |  |  |  |  | antagonist | > 10000 | > 10000 | increased | 7%–12% | ~16 | increased | 1900
